Assay results published in publication PMC12164026, “Plant-derived nodule-specific cysteine-rich peptides as potent antifungal agents against Cryptococcus neoformans: mechanisms of action, chimeric peptide enhancement, and immunomodulatory effects” (Current Research in Microbial Sciences, 2025).
Read-outs that look alike come from different tables or passages of the source. Bridge positions count the residues as written; N and C are the ends. Peptide text beside a SMILES is read from it.

How the values were obtained:
[1] = tested on: Cryptococcus neoformans IFM 5844; experiment: microbe, parasite or virus in culture; format: cell-based; settings: five-fold diluted YNB + 1 % dextrose, 5 × 10^4 cells/mL, 30 °C, 72 h, OD 620 nm, ≥ 90 % growth inhibition, tested 25 to 0.39 µM, three biological replicates
Procedure: The susceptibility of Cryptococcus neoformans IFM 5844 to 20 peptides (Supplementary Table 1) was tested in a widely used synthetic medium to cultivate yeasts (YNB) and in a serum-free medium what is able to support the proliferation of macrophage cells (X-VIVO).
YNB medium: five-fold diluted Difco Yeast Nitrogen Base w/o Amino Acids medium (Becton, Dickinson and Company, Sparks, MD, USA) supplemented with 1 % dextrose
The minimal inhibitory concentration (MIC) of each peptide was determined by using micro-dilution assay. The C. neoformans suspensions were adjusted to 5 × 10^4 cells/mL concentration in either YNB or X-VIVO medium. A 96-well microtiter plate was prepared by adding 95 µL suspension per well followed by 5 µL of serially two-fold diluted peptide solutions achieving a final volume of 100 µl. The concentration of the peptides ranged from 25 to 0.39 µM. For control samples, 5 µL pure medium was added to the yeast cell suspension instead of peptides. Plates were incubated at 37 °C for 48 h in X-VIVO medium and 30 °C for 72 h in YNB medium. After incubation, optical density was measured at 620 nm using a SPECTROstar Nano plate reader (BMG LabTech, Offenburg, Germany). […] The experiments were carried out in three independent biological replicates.

[2] = tested on: Cryptococcus neoformans IFM 5844; experiment: Minimal fungicidal concentration (MFC) determination, spotting on YPD; format: cell-based; settings: cultures from MIC assays diluted and spotted onto solid YPD, 30 °C, 48 h
Procedure: Minimal fungicidal concentration (MFC) determination. To assess fungicidal activity, both control and peptide-treated cultures from the MIC assays were diluted 10-fold and 100-fold in sterile distilled water. Five µL from each dilution was then spotted onto solid YPD medium (1 % pepton, 1 % dextrose, 0.5 % yeast extract, 2 % agar). The plates were incubated at 30 °C for 48 h and fungal growth was evaluated. MFC was defined as the lowest peptide concentration at which no visible fungal growth was detected, indicating complete fungicidal activity.

[3] = Cryptococcus neoformans, IFM5844, read-out: MIC

OC(Cn1cncn1)(Cn1cncn1)c1ccc(F)cc1F [Fluconazole, fluconazole, reference compound]
MIC [1, 3]: 12.5 µM

CC[C@H](C)[C@H](NC(=O)[C@H](CCCCN)NC(=O)[C@H](Cc1ccccc1)NC(=O)[C@H](CC(C)C)NC(=O)[C@@H]1CCCN1C(=O)[C@H](CCCCN)NC(=O)[C@H](CCCCN)NC(=O)[C@H](CO)NC(=O)[C@@H](N)CCCCN)C(=O)N[C@@H](Cc1c[nH]c2ccccc12)C(=O)N[C@@H](CCCCN)C(=O)N[C@H]1CSSC[C@@H](C(=O)N[C@H](C(=O)N[C@@H](CC(C)C)C(=O)N[C@@H](Cc2c[nH]c3ccccc23)C(=O)N[C@@H](Cc2ccc(O)cc2)C(=O)N[C@@H](CCCCN)C(N)=O)C(C)C)NC(=O)[C@H](C(C)C)NC(=O)[C@H](CC(N)=O)NC(=O)[C@H](CCC(=O)O)NC(=O)[C@H](C(C)C)NC1=O [NCR169C17–38ox] (H-KSKKPLFKIWKCVENVCVLWYK-NH2; disulfide 12-17; N-terminus assumed)
fungistatic or fungicide mode of action [2]: fungicidal effect | MIC ([1]; read-out: MIC): 3.12 µM

CC[C@H](C)[C@H](NC(=O)[C@@H]1CCCN1C(=O)[C@@H](NC(=O)[C@H](CS)NC(=O)[C@H](Cc1ccc(O)cc1)NC(=O)[C@H](CO)NC(=O)[C@H](CCCCN)NC(=O)[C@H](CCCNC(=N)N)NC(=O)[C@H](CS)NC(=O)[C@H](CCCNC(=N)N)NC(=O)[C@@H](NC(=O)[C@H](CC(N)=O)NC(=O)[C@H](C)NC(=O)[C@H](CCCNC(=N)N)NC(=O)[C@H](CCCNC(=N)N)NC(=O)[C@H](CC(C)C)NC(=O)[C@H](CCCCN)NC(=O)[C@@H]1CCCN1C(=O)[C@H](CS)NC(=O)[C@H](CC(=O)O)NC(=O)[C@H](CCCCN)NC(=O)[C@H](CC(N)=O)NC(=O)[C@@H](NC(=O)[C@H](CCCCN)NC(=O)[C@H](CS)NC(=O)[C@H](CC(=O)O)NC(=O)[C@H](CO)NC(=O)[C@H](CC(C)C)NC(=O)[C@@H](NC(=O)[C@H](CC(C)C)NC(=O)[C@H](CO)NC(=O)[C@H](Cc1ccccc1)NC(=O)[C@@H](N)Cc1c[nH]cn1)[C@@H](C)CC)[C@@H](C)O)C(C)C)C(C)C)C(N)=O [NCR335C1–33] (H-HFSLILSDCKTNKDCPKLRRANVRCRKSYCVPI-NH2; N-terminus assumed)
fungistatic or fungicide mode of action [2]: fungicidal effect

C[C@@H]1[C@H](O)[C@@H](C)/C=C/C=C/C=C/C=C/C=C/C=C/C=C/[C@H](O[C@@H]2O[C@H](C)[C@@H](O)[C@H](N)[C@@H]2O)C[C@@H]2O[C@](O)(C[C@@H](O)C[C@@H](O)[C@H](O)CC[C@@H](O)C[C@@H](O)CC(=O)O[C@H]1C)C[C@H](O)[C@H]2C(=O)O [amphotericin B, reference compound]
MIC [1, 3]: 1.56 µM

CKTNKDCP [NCR335C9–16, short derivative of NCR335 C-terminal region]
MIC [1]: lacked inhibitory effect

FWGQNRNIMKHRGQ [NCR335N16–29, 14 amino acid-long N-terminal fragment of NCR335]
MIC [1]: ineffective

HFSLILSD [NCR335C1–8, short derivative of NCR335 C-terminal region]
MIC [1]: lacked inhibitory effect

HFSLILSDCKTNKDCP [NCR335C1–16, short derivative of NCR335 C-terminal region]
MIC [1]: lacked inhibitory effect

KLRRANVRCRK [NCR335C17–27, further truncation of NCR335C17–33]
MIC [1]: lacked inhibitory effect

RLNTTFRPLNFKMLRFWGQNRNIMKHRGQKVHFSLILSDCKTNKDCPKLRRANVRCRKSYCVPI [NCR335, 64-amino-acid-long cationic M. truncatula NCR peptide]
MIC ([1]; read-out: MIC): 3.12 µM
